biological target: T1, histamine 3 receptor (H3R) (Homo sapiens, UniProt Q9Y5N1); assay: Binding assay with 3H-(R)α-methylhistamine, competition binding on membranes of the human H3R-CHO cell line; conditions: competition with 3H(R)α-methylhistamine (1 nM), Ki calculated from IC50 by Cheng-Prusoff
T1 construct: expressed in transfected cells; host or cells: CHO cells
Description: Binding Assay with ^3H-(R)α-methylhistamine
Saturation binding experiments were performed using HR3-CHO membranes prepared as described in Takahashi, K, Tokita, S., Kotani, H. (2003) J. Pharmacol. Exp. Therapeutics 307, 213-218.
An appropriate amount of membrane (60 to 80 μg protein/well) was incubated with increasing concentrations of ^3H(R)α-Methylhistamine di-hydrochloride (0.10 to 10 nM). Non specific binding was determined using a 200 fold excess of cold (R)α-Methylhistamine dihydrobromide (500 nM final concentration). The incubation was carried out at room temperature (in deep-well plates shaking for three hours). The final volume in each well was 250 μl. The incubation was followed by rapid filtration on GF/B filters (pre-soaked with 100 μl of 0.5% PEI in Tris 50 mM shaking at 200 rpm for two hours). The filtration was made using a cell-harvester and the filter plates were then washed five times with ice cold washing buffer containing 0.5 M NaCl. After harvesting, the plates were dried at 55° C. for 60 min, then we added scintillation fluid (Microscint 40, 40 microl in each well) and the amount of radioactivity on the filter was determined in Packard top-counter after shaking the plates for two hours at 200 rpm at room temperature.
Binding Buffer: 50 mM Tris-HCl pH 7.4 and 5 mM MgCl2×6H2O pH 7.4. Washing Buffer: 50 mM Tris-HCl pH 7.4 and 5 mM MgCl2×6H2O and 0.5 M NaCl pH 7.4.
Indirect measurement of affinity of H3R inverse agonists: twelve increasing concentrations (ranging from 10 μM to 0.3 nM) of the selected compounds were always tested in competition binding experiments using membrane of the human H3R-CHO cell line. An appropriate amount of protein, e.g. approximately 500 cpm binding of RAMH at Kd, were incubated for 1 hour at room temperature in 250 μl final volume in 96-well plates in presence of ^3H(R)α-methylhistamine (1 nM final concentration=Kd). Non-specific binding was determined using a 200 fold excess of cold (R)α-methylhistamine dihydrobromide.
All compounds were tested at a single concentration in duplicate. […] The concentration at which 50% inhibition of the radioligand ^3H(R)α-methylhistamine is obtained (the IC50) is determined from the linear regression of a plot of the logarithm of the concentration versus percent inhibition measured for the different concentrations. Ki's were calculated from IC50 based on Cheng-Prusoff equation (Cheng, Y, Prusoff, W H (1973) Biochem Pharmacol 22, 3099-3108): Ki=IC50/[1+D/Kd] wherein D is the concentration of the radioligand and Kd is the binding constant for the radioligand binding to the receptor under the conditions used in the competition experiment.

T1 sequence (Q9Y5N1 whole entry): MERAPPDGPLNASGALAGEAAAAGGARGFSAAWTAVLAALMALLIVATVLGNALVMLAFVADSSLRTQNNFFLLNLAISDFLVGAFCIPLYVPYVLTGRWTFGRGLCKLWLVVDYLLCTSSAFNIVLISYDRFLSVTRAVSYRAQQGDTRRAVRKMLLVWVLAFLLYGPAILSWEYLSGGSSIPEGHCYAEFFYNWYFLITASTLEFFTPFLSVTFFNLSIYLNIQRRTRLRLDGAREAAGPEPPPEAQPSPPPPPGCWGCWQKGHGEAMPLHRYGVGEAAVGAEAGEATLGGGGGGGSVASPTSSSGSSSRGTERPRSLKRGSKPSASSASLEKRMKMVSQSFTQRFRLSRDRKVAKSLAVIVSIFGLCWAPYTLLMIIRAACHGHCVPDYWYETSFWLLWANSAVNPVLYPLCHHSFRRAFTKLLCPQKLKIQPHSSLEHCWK

Compound	Ki [nM]
CS(=O)(=O)c1ccc(O[C@H]2CC[C@H](C(=O)N3CCN(C4CCC4)CC3)CC2)nc1 [Example 13, trans-(4-Cyclobutyl-piperazin-1-yl)-[4-(5-methanesulfonyl-pyridin-2-yloxy)-cyclohexyl]-methanone]	11.2
CNC(=O)c1csc(O[C@H]2CC[C@H](C(=O)N3CCN(C(C)C)CC3)CC2)n1 [Example 27, trans-2-[4-(4-Isopropyl-piperazine-1-carbonyl)-cyclohexyloxy]-thiazole-4-carboxylic acid methylamide]	28.8
O=C([C@H]1CC[C@H](Oc2ccc(-n3cncn3)cc2)CC1)N1CCN(C2CCC2)CC1 [Example 1, Trans-(4-Cyclobutyl-piperazin-1-yl)-[4-(4-[1,2,4]triazol-1-yl-phenoxy)-cyclohexyl]-methanone]	6.5

The remaining molecules from weak to strong by Ki, led by results:

Ki [nM]	Compound
6.9	O=C1COCCN1c1ccc(O[C@H]2CC[C@H](C(=O)N3CCN(C4CCC4)CC3)CC2)cc1 [Example 42, trans-4-{4-[4-(4-Cyclobutyl-piperazine-1-carbonyl)-cyclohexyloxy]-phenyl}-morpholin-3-one]
5.6	CC(C)c1nnc(-c2ccc(O[C@H]3CC[C@H](C(=O)N4CCN(C(C)C)CC4)CC3)cc2)o1 [Example 31, trans-{4-[4-(5-Isopropyl-[1,3,4]oxadiazol-2-yl)-phenoxy]-cyclohexyl}-(4-isopropyl-piperazin-1-yl)-methanone]
4.4	CC(C)N1CCN(C(=O)[C@H]2CC[C@H](Oc3ccc(-c4ccncc4)cc3)CC2)CC1 [Example 50, trans-(4-Isopropyl-piperazin-1-yl)-[4-(4-pyridin-4-yl-phenoxy)-cyclohexyl]-methanone]
